Test results as given in publication PMC5054527, “Mechanism of high affinity inhibition of the human urate transporter URAT1” (Scientific Reports, 2016).
Substitutions are numbered along the chain they refer to. Like-named read-outs stand apart in the source and are kept apart here.

Key:
Test in all cases: URAT1 uric acid transport activity assay
Format in all cases: cell-based
[1] = molecular target: T1, r-L29M rURAT1 point mutant (Rattus norvegicus, UniProt Q3ZAV1, L29M)
T1 sequence (Q3ZAV1 1-553 L29M): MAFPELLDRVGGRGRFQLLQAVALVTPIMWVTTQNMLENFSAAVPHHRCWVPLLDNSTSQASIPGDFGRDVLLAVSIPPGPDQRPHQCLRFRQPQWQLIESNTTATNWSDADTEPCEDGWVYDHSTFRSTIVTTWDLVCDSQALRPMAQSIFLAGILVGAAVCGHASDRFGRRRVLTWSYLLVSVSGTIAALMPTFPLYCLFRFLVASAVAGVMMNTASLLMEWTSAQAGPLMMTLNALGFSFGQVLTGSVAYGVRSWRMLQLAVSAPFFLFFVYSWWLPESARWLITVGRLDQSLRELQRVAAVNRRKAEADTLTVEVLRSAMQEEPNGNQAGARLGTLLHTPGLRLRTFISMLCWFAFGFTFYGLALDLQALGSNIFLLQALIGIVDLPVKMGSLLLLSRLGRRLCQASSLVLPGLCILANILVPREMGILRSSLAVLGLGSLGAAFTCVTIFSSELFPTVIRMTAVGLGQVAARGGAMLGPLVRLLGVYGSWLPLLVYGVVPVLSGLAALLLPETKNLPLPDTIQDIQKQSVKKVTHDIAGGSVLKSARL
How it was run: (§1)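 Readout: 14C-uric acid uptake (100 μM, 10 min) in cells transiently transfected one day earlier with mutant rURAT1. Serially diluted inhibitors were added 5 min before substrate. Triplicate points, four-parameter logistic fit for IC50.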

[2] = molecular target: T2, r-P27S rURAT1 point mutant (Rattus norvegicus, UniProt Q3ZAV1, P27S)
T2 sequence (Q3ZAV1 1-553 P27S): T1 sequence (Q3ZAV1 1-553 L29M) with P27S, M29L
How it was run: as §1

[3] = molecular target: T3, r-V25M rURAT1 point mutant (Rattus norvegicus, UniProt Q3ZAV1, V25M)
T3 construct: expressed in transfected cells; host or cells: HEK-293T
T3 sequence (Q3ZAV1 1-553 V25M): T1 sequence (Q3ZAV1 1-553 L29M) with V25M, M29L
How it was run: as §1

With `CCc1oc2ccccc2c1C(=O)c1cc(Br)c(O)c(Br)c1` [benzbromarone] the IC50 [1] was 21 ± 3.3 µM, the IC50 [2] was 16 ± 1.7 µM and the IC50 [3] was 11 ± 2.7 µM.

`O=C(O)CSc1nnc(Br)n1-c1ccc(C2CC2)c2ccccc12` [lesinurad, 2-((5-bromo-4-(4-cyclopropylnaphthalen-1-yl)-4H-1,2,4-triazol-3-yl)thio)acetic acid] showed an IC50 ([1]; r-L29M, MES pH 5.5, 100 μM 14C-uric acid, read-out: IC50 (uric acid transport)) of 77 ± 6.6 µM, an IC50 ([2]; r-P27S, MES pH 5.5, 100 μM 14C-uric acid, read-out: IC50 (uric acid transport)) of 77 ± 3.2 µM and an IC50 ([3]; r-V25M, MES pH 5.5, 100 μM 14C-uric acid, read-out: IC50 (uric acid transport)) of 59 ± 17 µM.

For `O=C1C(CC[S+]([O-])c2ccccc2)C(=O)N(c2ccccc2)N1c1ccccc1` (centres unmarked) [sulfinpyrazone], the IC50 ([1]; r-L29M, HEPES pH 7.3, 100 μM 14C-uric acid, read-out: IC50 (uric acid transport)) was 495 ± 152 µM, the “fold higher affinity of r-P27S compared to rURAT1” value ([2]; from IC50 values) was 2.1 fold and the IC50 ([2]; r-P27S, HEPES pH 7.3, 100 μM 14C-uric acid, read-out: IC50 (uric acid transport)) was 321 ± 77 µM. The “fold increased affinity of r-V25M compared to rURAT1” value ([3]; from IC50 values) was 49 fold and the IC50 ([3]; r-V25M, HEPES pH 7.3, 100 μM 14C-uric acid, read-out: IC50 (uric acid transport)) was 14 ± 2.3 µM.
